In paper PMC6437697 (Journal of Medicinal Chemistry, 2019):

Experiments:
Assay in all cases: KINOMEscan
Type in all cases: binding
Details in all cases: read-out: % control activity remaining
[1] = target: T1, AKT3 (Homo sapiens, UniProt Q9Y243)
T1 construct: purchased Eurofins DiscoverX KINOMEscan

[2] = target: T2, PKMYT1 (Homo sapiens, UniProt Q99640)
T2 construct: purchased Eurofins DiscoverX KINOMEscan
T2 sequence (Q99640 1-499): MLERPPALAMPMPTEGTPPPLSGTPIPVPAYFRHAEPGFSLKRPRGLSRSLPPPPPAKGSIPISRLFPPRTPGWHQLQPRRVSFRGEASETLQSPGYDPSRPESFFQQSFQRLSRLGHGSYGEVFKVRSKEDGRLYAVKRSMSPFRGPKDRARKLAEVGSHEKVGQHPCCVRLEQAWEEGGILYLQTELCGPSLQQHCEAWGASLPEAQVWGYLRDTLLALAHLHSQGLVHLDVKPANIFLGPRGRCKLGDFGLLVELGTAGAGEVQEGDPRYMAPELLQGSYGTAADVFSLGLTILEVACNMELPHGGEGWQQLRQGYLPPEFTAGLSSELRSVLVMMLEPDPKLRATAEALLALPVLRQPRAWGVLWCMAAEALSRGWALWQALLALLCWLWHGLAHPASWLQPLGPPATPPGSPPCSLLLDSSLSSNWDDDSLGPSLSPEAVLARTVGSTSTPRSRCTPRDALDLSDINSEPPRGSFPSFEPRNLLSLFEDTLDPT

[3] = target: T3, SRPK2 (Homo sapiens, UniProt P78362)
T3 construct: purchased Eurofins DiscoverX KINOMEscan

[4] = target: T4, TAOK2 (Homo sapiens, UniProt Q9UL54)
T4 construct: purchased Eurofins DiscoverX KINOMEscan
T4 sequence (Q9UL54 1-1235): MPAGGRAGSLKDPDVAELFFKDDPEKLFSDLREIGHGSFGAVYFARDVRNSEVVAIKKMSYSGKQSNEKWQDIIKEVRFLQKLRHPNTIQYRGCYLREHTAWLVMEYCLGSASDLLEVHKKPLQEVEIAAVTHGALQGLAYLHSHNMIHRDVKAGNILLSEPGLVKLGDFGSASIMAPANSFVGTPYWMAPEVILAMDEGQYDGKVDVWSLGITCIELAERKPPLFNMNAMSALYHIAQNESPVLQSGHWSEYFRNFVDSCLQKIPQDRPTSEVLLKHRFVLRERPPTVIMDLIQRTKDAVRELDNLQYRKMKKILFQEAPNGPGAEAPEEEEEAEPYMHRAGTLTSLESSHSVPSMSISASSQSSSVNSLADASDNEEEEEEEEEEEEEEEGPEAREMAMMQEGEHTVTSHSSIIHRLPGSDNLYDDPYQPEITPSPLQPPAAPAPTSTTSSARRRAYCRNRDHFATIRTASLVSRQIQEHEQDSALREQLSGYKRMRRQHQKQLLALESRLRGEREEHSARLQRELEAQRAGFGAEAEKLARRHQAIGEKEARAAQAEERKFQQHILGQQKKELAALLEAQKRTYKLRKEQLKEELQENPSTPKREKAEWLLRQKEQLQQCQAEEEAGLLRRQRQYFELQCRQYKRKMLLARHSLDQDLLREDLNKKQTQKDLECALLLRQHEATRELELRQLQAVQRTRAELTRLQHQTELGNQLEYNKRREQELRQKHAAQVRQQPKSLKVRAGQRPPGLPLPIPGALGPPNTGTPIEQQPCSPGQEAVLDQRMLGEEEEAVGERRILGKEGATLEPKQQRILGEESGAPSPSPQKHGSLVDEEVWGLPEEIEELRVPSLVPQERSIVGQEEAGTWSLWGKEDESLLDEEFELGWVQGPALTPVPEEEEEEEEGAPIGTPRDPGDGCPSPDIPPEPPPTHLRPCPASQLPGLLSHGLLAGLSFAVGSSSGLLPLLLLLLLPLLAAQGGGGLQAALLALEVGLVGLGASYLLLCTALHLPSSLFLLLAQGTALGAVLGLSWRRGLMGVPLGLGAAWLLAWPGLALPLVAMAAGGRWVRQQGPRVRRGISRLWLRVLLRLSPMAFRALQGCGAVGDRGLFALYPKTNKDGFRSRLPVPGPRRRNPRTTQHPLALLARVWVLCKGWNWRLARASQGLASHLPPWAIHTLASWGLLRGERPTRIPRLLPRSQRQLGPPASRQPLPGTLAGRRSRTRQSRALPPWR

[5] = target: T5, CDK5 (Homo sapiens, UniProt Q00535)
T5 construct: purchased Eurofins DiscoverX KINOMEscan

[6] = target: T6, PLK2 (Homo sapiens, UniProt Q9NYY3)
T6 construct: purchased Eurofins DiscoverX KINOMEscan

[7] = target: T7, SRC (Homo sapiens, UniProt P12931)
T7 construct: purchased Eurofins DiscoverX KINOMEscan

[8] = target: T8, TIE1 (Homo sapiens, UniProt P35590)
T8 construct: purchased Eurofins DiscoverX KINOMEscan

[9] = target: T9, TNIK (Homo sapiens, UniProt Q9UKE5)
T9 construct: purchased Eurofins DiscoverX KINOMEscan

T5 sequence (Q00535 whole entry): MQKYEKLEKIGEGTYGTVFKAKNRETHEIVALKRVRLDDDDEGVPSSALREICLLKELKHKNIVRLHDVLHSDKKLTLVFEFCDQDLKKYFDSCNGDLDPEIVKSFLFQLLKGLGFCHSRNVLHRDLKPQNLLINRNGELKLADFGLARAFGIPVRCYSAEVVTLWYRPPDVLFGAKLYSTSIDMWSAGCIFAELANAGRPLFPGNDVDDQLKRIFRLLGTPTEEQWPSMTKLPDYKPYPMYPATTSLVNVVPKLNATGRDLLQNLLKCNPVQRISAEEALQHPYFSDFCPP
T3 sequence (P78362 whole entry): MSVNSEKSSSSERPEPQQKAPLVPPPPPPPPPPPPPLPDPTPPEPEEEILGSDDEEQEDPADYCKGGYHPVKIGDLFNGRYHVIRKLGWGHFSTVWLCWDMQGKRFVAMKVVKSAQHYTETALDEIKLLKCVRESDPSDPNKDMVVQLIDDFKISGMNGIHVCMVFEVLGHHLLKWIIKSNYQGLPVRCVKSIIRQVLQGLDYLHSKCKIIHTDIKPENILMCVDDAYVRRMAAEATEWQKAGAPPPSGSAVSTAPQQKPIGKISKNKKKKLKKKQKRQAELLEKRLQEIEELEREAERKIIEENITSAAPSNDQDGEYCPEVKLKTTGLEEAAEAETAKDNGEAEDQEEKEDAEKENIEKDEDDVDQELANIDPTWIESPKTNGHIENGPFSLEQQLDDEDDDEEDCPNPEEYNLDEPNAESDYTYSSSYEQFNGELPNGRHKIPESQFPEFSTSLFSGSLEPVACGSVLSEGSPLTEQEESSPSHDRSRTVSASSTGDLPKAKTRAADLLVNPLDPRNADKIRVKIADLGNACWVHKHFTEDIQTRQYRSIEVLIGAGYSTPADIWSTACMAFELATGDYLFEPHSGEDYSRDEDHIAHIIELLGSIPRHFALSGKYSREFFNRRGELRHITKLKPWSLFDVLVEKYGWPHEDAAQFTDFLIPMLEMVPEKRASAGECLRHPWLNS
T8 sequence (P35590 22-1138): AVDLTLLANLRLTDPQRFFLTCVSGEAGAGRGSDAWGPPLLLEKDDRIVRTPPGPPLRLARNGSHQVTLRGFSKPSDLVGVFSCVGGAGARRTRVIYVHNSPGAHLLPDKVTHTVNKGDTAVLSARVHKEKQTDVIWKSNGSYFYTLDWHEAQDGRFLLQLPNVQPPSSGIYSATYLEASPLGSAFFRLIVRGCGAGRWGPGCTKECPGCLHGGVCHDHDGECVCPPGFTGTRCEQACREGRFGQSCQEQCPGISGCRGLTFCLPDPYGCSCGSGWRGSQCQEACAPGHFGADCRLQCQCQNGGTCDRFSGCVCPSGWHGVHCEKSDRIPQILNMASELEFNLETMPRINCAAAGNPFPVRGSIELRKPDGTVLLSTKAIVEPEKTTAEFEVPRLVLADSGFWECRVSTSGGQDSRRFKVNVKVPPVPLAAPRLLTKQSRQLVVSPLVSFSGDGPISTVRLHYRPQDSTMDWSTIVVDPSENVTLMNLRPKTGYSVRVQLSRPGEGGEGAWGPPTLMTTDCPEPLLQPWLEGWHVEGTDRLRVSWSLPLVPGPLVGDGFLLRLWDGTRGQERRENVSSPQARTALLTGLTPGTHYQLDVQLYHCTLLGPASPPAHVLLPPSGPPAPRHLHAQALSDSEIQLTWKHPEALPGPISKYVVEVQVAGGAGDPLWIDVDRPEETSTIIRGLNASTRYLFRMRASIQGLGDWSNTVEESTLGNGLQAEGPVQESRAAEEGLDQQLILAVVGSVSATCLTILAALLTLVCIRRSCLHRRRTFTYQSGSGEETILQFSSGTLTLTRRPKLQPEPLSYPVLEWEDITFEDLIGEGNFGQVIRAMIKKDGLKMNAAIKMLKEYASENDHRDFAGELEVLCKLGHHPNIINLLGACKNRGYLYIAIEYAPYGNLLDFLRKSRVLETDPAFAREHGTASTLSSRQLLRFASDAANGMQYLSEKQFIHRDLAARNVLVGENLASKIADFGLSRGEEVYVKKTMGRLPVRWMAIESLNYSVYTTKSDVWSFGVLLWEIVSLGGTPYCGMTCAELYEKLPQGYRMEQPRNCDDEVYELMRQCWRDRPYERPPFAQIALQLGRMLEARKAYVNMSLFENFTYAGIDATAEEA
T1 sequence (Q9Y243 whole entry): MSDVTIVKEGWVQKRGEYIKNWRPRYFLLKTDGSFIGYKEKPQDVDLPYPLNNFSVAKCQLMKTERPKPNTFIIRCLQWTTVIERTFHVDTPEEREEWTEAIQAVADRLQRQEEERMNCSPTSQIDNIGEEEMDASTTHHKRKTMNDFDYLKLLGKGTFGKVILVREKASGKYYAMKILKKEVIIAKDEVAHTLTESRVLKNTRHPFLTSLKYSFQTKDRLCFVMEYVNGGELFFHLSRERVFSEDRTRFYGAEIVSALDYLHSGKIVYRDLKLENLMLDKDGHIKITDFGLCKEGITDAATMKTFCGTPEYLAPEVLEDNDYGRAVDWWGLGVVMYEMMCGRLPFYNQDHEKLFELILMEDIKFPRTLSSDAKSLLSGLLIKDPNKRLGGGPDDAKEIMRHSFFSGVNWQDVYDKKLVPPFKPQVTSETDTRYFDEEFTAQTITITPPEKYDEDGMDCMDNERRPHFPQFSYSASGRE
T6 sequence (Q9NYY3 whole entry): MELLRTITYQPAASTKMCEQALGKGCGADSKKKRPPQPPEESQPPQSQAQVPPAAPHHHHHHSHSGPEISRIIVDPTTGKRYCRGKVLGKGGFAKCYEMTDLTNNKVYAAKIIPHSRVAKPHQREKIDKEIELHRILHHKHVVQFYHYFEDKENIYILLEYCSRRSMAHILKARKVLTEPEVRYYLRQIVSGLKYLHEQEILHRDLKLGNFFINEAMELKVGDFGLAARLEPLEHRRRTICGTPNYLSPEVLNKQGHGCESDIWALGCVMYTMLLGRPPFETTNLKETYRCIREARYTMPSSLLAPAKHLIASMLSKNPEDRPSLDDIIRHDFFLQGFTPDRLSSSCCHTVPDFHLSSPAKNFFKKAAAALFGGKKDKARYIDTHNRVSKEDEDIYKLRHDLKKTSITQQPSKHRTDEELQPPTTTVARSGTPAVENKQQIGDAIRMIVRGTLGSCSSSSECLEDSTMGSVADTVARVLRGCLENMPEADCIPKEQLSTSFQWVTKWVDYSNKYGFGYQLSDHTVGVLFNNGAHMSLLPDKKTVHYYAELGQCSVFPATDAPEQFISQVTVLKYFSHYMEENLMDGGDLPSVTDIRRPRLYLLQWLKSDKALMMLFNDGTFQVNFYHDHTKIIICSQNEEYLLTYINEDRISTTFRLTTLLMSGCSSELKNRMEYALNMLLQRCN
T7 sequence (P12931 whole entry): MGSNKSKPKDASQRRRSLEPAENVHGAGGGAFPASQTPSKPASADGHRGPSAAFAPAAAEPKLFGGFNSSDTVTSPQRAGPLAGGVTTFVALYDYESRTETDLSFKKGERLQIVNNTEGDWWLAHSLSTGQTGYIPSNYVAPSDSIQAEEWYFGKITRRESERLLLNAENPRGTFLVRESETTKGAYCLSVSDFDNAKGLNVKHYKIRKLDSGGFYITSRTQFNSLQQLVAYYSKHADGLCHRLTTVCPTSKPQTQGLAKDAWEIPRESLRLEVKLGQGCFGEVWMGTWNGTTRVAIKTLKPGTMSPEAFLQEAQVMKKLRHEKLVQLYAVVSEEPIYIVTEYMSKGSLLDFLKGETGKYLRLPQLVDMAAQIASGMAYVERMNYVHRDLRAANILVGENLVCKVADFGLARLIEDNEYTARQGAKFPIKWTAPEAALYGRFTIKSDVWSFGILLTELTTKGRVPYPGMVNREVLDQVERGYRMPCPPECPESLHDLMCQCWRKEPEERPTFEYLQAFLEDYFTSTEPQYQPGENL

Compound | remaining binding at 1 µM [1] [%] | remaining binding at 1 µM [2] [%] | remaining binding at 1 µM [3] [%] | remaining binding at 1 µM [4] [%] | remaining binding at 1 µM [5] [%] | remaining binding at 1 µM [6] [%] | remaining binding at 1 µM [7] [%] | remaining binding at 1 µM [8] [%] | remaining binding at 1 µM [9] [%]
Clc1cc(NCC2CC2)c2ncc(-c3ccc4[nH]ncc4c3)n2n1 [compound 2, 6-Chloro-N-(cyclopropylmethyl)-3-(1H-indazol-5-yl)imidazo[1,2-b]pyridazin-8-amine] | 100 | 81 | 73 | 87 | 100 | 66 | 100 | 99 | 80
O=C(CN1CCOCC1)N[C@H]1CC[C@H](Nc2cc(Cl)nn3c(-c4ccc5[nH]ncc5c4)cnc23)CC1 [compound 26] | 100 | 94 | 79 | 100 | 92 | 100 | 100 | 67 | 47
CN1CCC(CNc2cc(Cl)nn3c(-c4cc5nc(Nc6ccccc6)[nH]c5cc4F)cnc23)CC1 [compound 31, 6-Chloro-3-(6-fluoro-2-(phenylamino)-1H-benzo[d]imidazol-5-yl)-N-((1-methylpiperidin-4-yl)methyl)imidazo[1,2-b]pyridazin-8-amine] | 90 | 100 | 93 | 98 | 99 | 90 | 100 | 84 | 97
